Consider 30 molecules from patent publication US20140058103A1, “Inhibitors of PI3K-Delta and Methods of Their Use and Manufacture” (Exelixis, Inc., priority 2010, published 2014).

Some results are limits rather than exact numbers.

Chain of PI3K delta (O00329 whole entry): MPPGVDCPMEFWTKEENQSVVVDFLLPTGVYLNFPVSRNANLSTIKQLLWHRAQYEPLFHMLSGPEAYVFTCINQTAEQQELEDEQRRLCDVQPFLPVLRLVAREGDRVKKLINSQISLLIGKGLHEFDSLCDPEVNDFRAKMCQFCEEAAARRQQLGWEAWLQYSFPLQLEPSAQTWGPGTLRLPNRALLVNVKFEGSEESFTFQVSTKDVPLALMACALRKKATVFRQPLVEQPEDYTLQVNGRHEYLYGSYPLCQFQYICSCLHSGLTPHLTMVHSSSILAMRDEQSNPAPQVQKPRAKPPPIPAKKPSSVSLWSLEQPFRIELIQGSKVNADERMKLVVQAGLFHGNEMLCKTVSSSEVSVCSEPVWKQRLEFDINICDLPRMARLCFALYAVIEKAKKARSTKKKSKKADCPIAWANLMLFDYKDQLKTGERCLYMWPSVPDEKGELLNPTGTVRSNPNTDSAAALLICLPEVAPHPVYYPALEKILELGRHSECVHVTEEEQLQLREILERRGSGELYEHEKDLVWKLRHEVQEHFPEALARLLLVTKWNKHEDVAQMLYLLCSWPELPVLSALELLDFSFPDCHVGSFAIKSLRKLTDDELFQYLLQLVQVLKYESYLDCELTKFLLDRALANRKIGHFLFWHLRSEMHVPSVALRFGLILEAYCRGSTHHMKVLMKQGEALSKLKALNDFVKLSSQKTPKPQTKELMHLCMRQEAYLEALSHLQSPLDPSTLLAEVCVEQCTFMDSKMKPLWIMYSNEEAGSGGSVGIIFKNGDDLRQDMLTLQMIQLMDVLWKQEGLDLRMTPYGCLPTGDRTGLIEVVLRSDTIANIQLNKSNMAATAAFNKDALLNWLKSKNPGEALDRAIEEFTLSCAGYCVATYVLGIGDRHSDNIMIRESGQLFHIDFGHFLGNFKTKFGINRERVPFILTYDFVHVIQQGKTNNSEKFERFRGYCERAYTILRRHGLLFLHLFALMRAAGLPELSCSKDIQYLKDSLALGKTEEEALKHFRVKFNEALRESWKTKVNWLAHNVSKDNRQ
Chain of PI3K delta (P27986 whole entry partner): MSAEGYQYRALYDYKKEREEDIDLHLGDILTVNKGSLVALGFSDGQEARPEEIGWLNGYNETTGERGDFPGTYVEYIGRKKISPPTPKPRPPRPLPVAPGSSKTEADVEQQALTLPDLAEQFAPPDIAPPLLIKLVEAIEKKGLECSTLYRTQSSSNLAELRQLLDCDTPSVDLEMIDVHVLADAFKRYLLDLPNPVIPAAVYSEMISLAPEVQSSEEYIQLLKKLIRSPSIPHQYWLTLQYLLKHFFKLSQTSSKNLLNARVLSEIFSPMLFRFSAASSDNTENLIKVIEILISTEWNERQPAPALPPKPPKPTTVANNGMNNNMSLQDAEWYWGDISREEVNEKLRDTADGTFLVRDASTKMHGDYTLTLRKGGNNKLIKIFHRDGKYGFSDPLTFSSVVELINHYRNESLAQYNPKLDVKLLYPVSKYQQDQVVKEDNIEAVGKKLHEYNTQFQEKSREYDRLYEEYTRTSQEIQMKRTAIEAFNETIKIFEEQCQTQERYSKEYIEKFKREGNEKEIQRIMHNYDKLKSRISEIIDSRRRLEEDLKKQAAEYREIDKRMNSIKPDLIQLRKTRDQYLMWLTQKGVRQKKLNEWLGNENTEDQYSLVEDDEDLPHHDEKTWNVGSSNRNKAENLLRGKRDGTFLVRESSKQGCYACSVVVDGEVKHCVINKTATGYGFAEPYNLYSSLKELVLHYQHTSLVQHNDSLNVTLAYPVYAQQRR

The target of the test is PI3K delta (Homo sapiens, UniProt O00329). The experiment in a line: Luciferase-coupled chemiluminescence kinase assay (ATP consumption, KinaseGlo). The class given is biochemical. The method, then: Kinase activity and compound inhibition were investigated using one or more of the assay formats described below. The ATP concentrations used in the various assays were approximately equal to or less than the KM for each of the respective kinases. Dose-response experiments were performed using an intra-plate dilution scheme with 10 different inhibitor concentrations in a 384-well microtiter plate. IC50 values were calculated by nonlinear regression analysis using the four-parameter equation listed below:
Y=min+(max−min)/(1+(X/IC50)^N) Equation 1
Typically N should approximate unity. Curve fitting was performed using XLFit or ActivityBase.
Kinase activity is measured as the percent of ATP consumed following the kinase reaction using luciferase-luciferin-coupled chemiluminescence. […] Kinase reactions were initiated by combining test compounds, kinase, and ATP in a 20 μL volume (6 μL volume for 1536-well plate). The reaction mixture was incubated at ambient temperature for 2 h. Following the kinase reaction, a 20 μL (or […] for 1536-well plate) aliquot of KinaseGlo (Promega) was added and the chemiluminescence signal measured using an EnVision plate reader (Perkin Elmer).
A general note: Kinase-Glo reads ATP consumption through a luciferase reaction.
On to `CCNC(=O)c1nc2c(N3CCC(n4c(=O)[nH]c5ccccc54)CC3)ncnc2n1CC` [Compound 192, N,9-diethyl-6-[4-(2-oxo-2,3-dihydro-1H-benzimidazol-1-yl)piperidin-1-yl]-9H-purine-8-carboxamide], for which the IC50 (commonly the concentration needed to halve the response being measured) was 50 to 250 nM.
The molecule `Cc1c(-c2nc3c(N4CCC5(CC4)C(=O)Nc4ccccc45)ncnc3n2C)cnn1C` [Compound 393, 1′-(8-(1,5-dimethyl-1H-pyrazol-4-yl)-9-methyl-9H-purin-6-yl)spiro[indoline-3,4′-piperidin]-2-one] gave an IC50 of 500 to 1500 nM.
Then `CC(C)Cc1nnc(-c2nc3c(N4CCC(n5c(=O)[nH]c6ccccc65)CC4)ncnc3n2C)o1` [Compound 204, 1-(1-{9-methyl-8-[5-(2-methylpropyl)-1,3,4-oxadiazol-2-yl]-9H-purin-6-yl}piperidin-4-yl)-1,3-dihydro-2H-benzimidazol-2-one], with below 50 nM; and `Cc1nc2c(N3CCC(n4c(=O)[nH]c5ccccc54)CC3)ncnc2n1C` [Compound 81, 1-[1-(8,9-Dimethyl-9H-purin-6-yl)piperidin-4-yl]-1,3-dihydro-2H-benzimidazol-2-one], with 500 to 1500 nM; and `Cn1c(C(=O)NCc2ccc(F)cc2F)nc2c(N3CCC(n4c(=O)[nH]c5ccccc54)CC3)ncnc21` [Compound 66, N-[(2,4-difluorophenyl)methyl]-9-methyl-6-[4-(2-oxo-2,3-dihydro-1H-benzimidazol-1-yl)piperidin-1-yl]-9H-purine-8-carboxamide], with 500 to 1500 nM.
Consider `CN(C)c1ncc(-c2nc3c(N4CCC(n5c(=O)[nH]c6ccccc65)CC4)ncnc3n2C)cn1` [Compound 311, 1-(1-{8-[2-(dimethylamino)pyrimidin-5-yl]-9-methyl-9H-purin-6-yl}piperidin-4-yl)-1,3-dihydro-2H-benzimidazol-2-one], for which the IC50 is below 50 nM.
As for `Cn1c(C(=O)NCC2CC2)nc2c(N3CCC(n4c(=O)[nH]c5cc(Cl)ccc54)CC3)ncnc21` [Compound 228, 6-[4-(5-chloro-2-oxo-2,3-dihydro-1H-benzimidazol-1-yl)piperidin-1-yl]-N-(cyclopropylmethyl)-9-methyl-9H-purine-8-carboxamide], the figure is 500 to 1500 nM; as for `Cn1c(N2CCCC2)nc2c(N3CCC(n4c(=O)[nH]c5ccccc54)CC3)ncnc21` [Compound 126, 1-[1-(9-methyl-8-pyrrolidin-1-yl-9H-purin-6-yl)piperidin-4-yl]-1,3-dihydro-2H-benzimidazol-2-one], 500 to 1500 nM.
As for `Cn1c(C(=O)N2CC(F)(F)C2)nc2c(N3CCC4(CC3)C(=O)Nc3ccccc34)ncnc21` [Compound 103, 1′-{8-[(3,3-difluoroazetidin-1-yl)carbonyl]-9-methyl-9H-purin-6-yl}spiro[indole-3,4′-piperidin]-2(1H)-one], the figure is 50 to 250 nM; as for `Cn1cc(-c2nc3c(N4CCC(CN)(c5ccccc5)CC4)ncnc3n2C)cn1` [Compound 1, 1-{1-[9-methyl-8-(1-methyl-1H-pyrazol-4-yl)-9H-purin-6-yl]-4-phenylpiperidin-4-yl}methanamine], 500 to 1500 nM.
As for `CCn1c(C(=O)N2CC(F)(F)C2)nc2c(N3CCC4(CC3)C(=O)Nc3ccccc34)ncnc21` [Compound 216, 1′-{8-[(3,3-difluoroazetidin-1-yl)carbonyl]-9-ethyl-9H-purin-6-yl}spiro[indole-3,4′-piperidin]-2(1H)-one], the figure is below 50 nM.
The molecule `CC(NC(=O)c1nc2c(N3CCC4(CC3)C(=O)Nc3ccccc34)ncnc2n1C)c1ccccc1` (stereo not drawn) [Compound 23, 9-methyl-6-(2-oxo-1,2-dihydro-1′H-spiro[indole-3,4′-piperidin]-1′-yl)-N-(1-phenylethyl)-9H-purine-8-carboxamide] registered an IC50 of 500 to 1500 nM.
As for `CCn1c(C(=O)NCCC(C)C)nc2c(N3CCC(n4c(=O)[nH]c5ccccc54)CC3)ncnc21` [Compound 198, 9-ethyl-N-(3-methylbutyl)-6-[4-(2-oxo-2,3-dihydro-1H-benzimidazol-1-yl)piperidin-1-yl]-9H-purine-8-carboxamide], the figure is 50 to 250 nM.
For `Cn1c(-c2cnn(CCO)c2)nc2c(N3CCC(n4c(=O)[nH]c5ccccc54)CC3)ncnc21` [Compound 178, 1-{1-(8-[1-(2-hydroxyethyl)-1H-pyrazol-4-yl]-9-methyl-9H-purin-6-yl}piperidin-4-yl)-1,3-dihydro-2H-benzimidazol-2-one], the 50% inhibitory concentration (IC50) was in the range of 50 to 250 nM.
Molecule `Cc1nc(-c2ccccc2)n(OCC2CCN(c3ncnc4c3nc(-c3cnn(C)c3)n4C)CC2)c1C` [Compound 2, 6-(4-(((4,5-Dimethyl-2-phenyl-1H-imidazol-1-yl)oxy)methyl)piperidin-1-yl)-9-methyl-8-(1-methyl-M-pyrazol-4-yl)-9H-purine] displayed an IC50 of 500 to 1500 nM.
As for `CCn1ncc(-c2nc3c(N4CCC(n5c(=O)[nH]c6ccccc65)CC4)ncnc3n2C)c1C` [Compound 281, 1-{1-[8-(1-ethyl-5-methyl-1H-pyrazol-4-yl)-9-methyl-9H-purin-6-yl]piperidin-4-yl}-1,3-dihydro-2H-benzimidazol-2-one], the figure is below 50 nM; as for `Cn1c(C(=O)NCC2CC2)nc2c(N3CCC4(CC3)C(=O)NCC4c3ccccc3)ncnc21` (stereo not drawn) [Compound 99, N-(cyclopropylmethyl)-9-methyl-6-(1-oxo-4-phenyl-2,8-diazaspiro[4.5]dec-8-yl)-9H-purine-8-carboxamide], 500 to 1500 nM.
Then `Cn1c(C(=O)N2CCCC2)nc2c(N3CCC4(CC3)C(=O)Nc3ccccc34)ncnc21` [Compound 35, 1′-[9-methyl-8-(pyrrolidin-1-ylcarbonyl)-9H-purin-6-yl]spiro[indole-3,4′-piperidin]-2(1H)-one], with 500 to 1500 nM.
As for `Cn1c(C(=O)NCC2CC2)nc2c(N3CCC(n4c(=S)[nH]c5ccccc54)CC3)ncnc21` [Compound 169, N-(cyclopropylmethyl)-9-methyl-6-[4-(2-thioxo-2,3-dihydro-1H-benzimidazol-1-yl)piperidin-1-yl]-9H-purine-8-carboxamide], the figure is 50 to 250 nM; as for `CCCNC(=O)c1nc2c(N3CCC(n4c(=O)[nH]c5ccccc54)CC3)ncnc2n1CC` [Compound 193, 9-ethyl-6-[4-(2-oxo-2,3-dihydro-1H-benzimidazol-1-yl)piperidin-1-yl]-N-propyl-9H-purine-8-carboxamide], below 50 nM; as for `Cn1c(C(=O)NCC2CC2)nc2c(N3CCC(n4c(=O)[nH]c5ncccc54)CC3)ncnc21` [Compound 240, N-(cyclopropylmethyl)-9-methyl-6-[4-(2-oxo-2,3-dihydro-1H-imidazo[4,5-b]pyridin-1-yl)piperidin-1-yl]-9H-purine-8-carboxamide], 50 to 250 nM.
As to `CCn1cc(-c2nc3c(N4CCC(n5c(=O)[nH]c6ccccc65)CC4)ncnc3n2C)cn1` [Compound 146, 1-{1-[8-(1-Ethyl-1H-pyrazol-4-yl)-9-methyl-9H-purin-6-yl]piperidin-4-yl}-1,3-dihydro-2H-benzimidazol-2-one], the half-maximal inhibitory concentration (IC50) was below 50 nM.
Then `CCCNC(=O)c1nc2c(N3CCC4(CC3)C(=O)Nc3ccccc34)ncnc2n1C` [Compound 36, 9-methyl-6-(2-oxo-1,2-dihydro-1′H-spiro[indole-3,4′-piperidin]-1′-yl)-N-propyl-9H-purine-8-carboxamide], with 50 to 250 nM; and `CNc1ncc(-c2nc3c(N4CCC(n5c(=O)[nH]c6ccccc65)CC4)ncnc3n2C)cn1` [Compound 309, 1-(1-{9-methyl-8-[2-(methylamino)pyrimidin-5-yl]-9H-purin-6-yl}piperidin-4-yl)-1,3-dihydro-2H-benzimidazol-2-one], with below 50 nM.
With `Cn1c(C(=O)NCC2CC2)nc2c(N3CCC(O)(c4ccccc4)CC3)ncnc21` [Compound 3, N-(cyclopropylmethyl)-6-(4-hydroxy-4-phenylpiperidin-1-yl)-9-methyl-9H-purine-8-carboxamide], the half-inhibitory concentration (IC50) was in the range of 50 to 250 nM.
The molecule `CCc1nnc(-c2nc3c(N4CCC5(CC4)C(=O)Nc4ccccc45)ncnc3n2CC)o1` [Compound 236, 1′-[9-ethyl-8-(5-ethyl-1,3,4-oxadiazol-2-yl)-9H-purin-6-yl]spiro[indole-3,4′-piperidin]-2(1H)-one] came in with an IC50 below 50 nM.
`C=C(C)c1cn(-c2nc3c(N4CCC(n5c(=O)[nH]c6ccccc65)CC4)ncnc3n2C)cn1` [Compound 167, 1-(1-{9-methyl-8-[4-(1-methylethenyl)-1H-imidazol-1-yl]-9H-purin-6-yl}piperidin-4-yl)-1,3-dihydro-2H-benzimidazol-2-one] had a 50% inhibitory concentration (IC50) below 50 nM.
As for `CCn1c(C(=O)NCC(C)(C)C)nc2c(N3CCC(n4c(=O)[nH]c5ccccc54)CC3)ncnc21` [Compound 190, N-(2,2-dimethylpropyl)-9-ethyl-6-[4-(2-oxo-2,3-dihydro-1H-benzimidazol-1-yl)piperidin-1-yl]-9H-purine-8-carboxamide], the figure is below 50 nM; as for `Cn1c(-c2cncnc2)nc2c(N3CCC4(CC3)C(=O)Nc3ccccc34)ncnc21` [Compound 293, 1′-(9-Methyl-8-pyrimidin-5-yl-9H-purin-6-yl)spiro[indole-3,4′-piperidin]-2(1H)-one], below 50 nM; as for `Cc1c(-c2nc3c(N4CCC(n5c(=O)[nH]c6ccccc65)CC4)ncnc3n2C)cnn1C` [Compound 241, 1-{1-[8-(1,5-dimethyl-1H-pyrazol-4-yl)-9-methyl-9H-purin-6-yl]piperidin-4-yl}-1,3-dihydro-2H-benzimidazol-2-one], below 50 nM.
